Patent US7491794B2, “Macrocyclic compounds as inhibitors of viral replication” (Intermune, Inc., priority 2003, dated 2009)
pEC50, pIC50: −log10 of the molar value.

What was measured:
[1] = system: HCV sub-genomic replicon, GS4.3; test: Quantitation by ELISA of NPTII in the HCV sub-genomic replicon, GS4.3, Section B; type: cell-based; conditions: Hepatitis C virus; GS4.3 cells, 72 h incubation; read-out: Replicon EC50
In short: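 NPTII marker protein in lysates was quantified by ELISA read at 450 nm after 72 h inhibitor exposure (3-fold series, final DMSO 1%, G418-free medium) of HuH-7 cells stably harbouring the subgenomic HCV replicon. Values relative to DMSO-treated controls; 4-parameter curves gave EC50.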

NS3-NS4A protease = target: T1, NS3-NS4A protease (Hepatitis C virus genotype 1a, UniProt P27958); test: NS3-NS4A protease assay (NS3 inhibition assay, RETS1 substrate), Section B; type: biochemical; conditions: read-out: NS3-NS4A IC50
T1 construct: Recombinant E. coli or Baculovirus full-length NS3 was diluted to 3.33 μM with assay buffer; made in house; host or cells: E. coli or baculovirus (BV) system
T1 sequence (P27958 1027-1657): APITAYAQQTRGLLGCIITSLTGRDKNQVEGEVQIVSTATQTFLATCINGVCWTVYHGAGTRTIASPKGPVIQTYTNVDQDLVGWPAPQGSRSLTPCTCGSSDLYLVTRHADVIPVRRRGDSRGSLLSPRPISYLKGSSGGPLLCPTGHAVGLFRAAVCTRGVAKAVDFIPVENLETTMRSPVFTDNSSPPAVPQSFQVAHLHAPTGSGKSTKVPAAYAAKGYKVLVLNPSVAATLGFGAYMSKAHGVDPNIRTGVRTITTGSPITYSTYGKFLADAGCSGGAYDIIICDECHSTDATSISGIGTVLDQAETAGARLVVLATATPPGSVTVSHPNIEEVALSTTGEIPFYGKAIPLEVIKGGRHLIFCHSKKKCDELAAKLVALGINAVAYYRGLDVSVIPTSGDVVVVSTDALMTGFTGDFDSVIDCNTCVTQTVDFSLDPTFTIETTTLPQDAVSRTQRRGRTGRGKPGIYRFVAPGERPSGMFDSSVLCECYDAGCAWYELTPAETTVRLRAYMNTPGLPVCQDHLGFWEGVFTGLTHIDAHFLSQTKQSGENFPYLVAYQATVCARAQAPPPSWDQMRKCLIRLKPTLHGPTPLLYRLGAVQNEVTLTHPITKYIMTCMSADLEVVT
In short: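 Kinetic fluorescence read (335 nm excitation, 495 nm emission, 30 min) of RETS1 cleavage by NS3/NS4A-2 complex, 2 nM E. coli or 3 nM baculovirus NS3, after 10 min room-temperature compound pre-incubation. Four-parameter-fit IC50s converted to Ki by Cheng–Prusoff, Ki=IC50/(1+[S]/Km).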

SMILES	pEC50 [1]	pIC50 (NS3-NS4A protease)
CC(C)S(=O)(=O)NC(=O)[C@@]12C[C@H]1/C=C\CCCCC[C@H](NC(=O)OC(C)(C)C)C(=O)N1C[C@H](OC(=O)N3Cc4ccccc4C3)C[C@H]1C(=O)N2 [AR00333801, (1S,4R,6S,14S,18R)-1,3-Dihydro-isoindole-2-carboxylic acid 14-tert-butoxycarbonylamino-2,15-dioxo-4-(propane-2-sulfonylaminocarbonyl)-3,16-diaza-tricyclo[14.3.0.0^4,6]nonadec-7-en-18-yl ester]	> 7.00	> 7.00
CC1CN(C(=O)O[C@@H]2C[C@H]3C(=O)N[C@]4(C(=O)NS(=O)(=O)C5CC5)C[C@H]4/C=C\CCCCC[C@H](NC(=O)NC(C)(C)C)C(=O)N3C2)Cc2ccccc21 (stereo partly drawn) [AR00314656, (1S,4R,6S,14S,18R)-4-Methyl-3,4-dihydro-1H-isoquinoline-2-carboxylic acid 14-(3-tert-butyl-ureido)-4-cyclopropanesulfonylaminocarbonyl-2,15-dioxo-3,16-diaza-tricyclo[14.3.0.0^4,6]nonadec-7-en-18-yl ester]	> 7.00	> 7.00
CC(C)(C)OC(=O)N[C@H]1CCCCC/C=C\[C@@H]2C[C@@]2(C(=O)NS(=O)(=O)C2CC2)NC(=O)[C@@H]2C[C@@H](NC(=O)N3CCc4ccccc4C3)CN2C1=O [AR00287266, (is, 4R, 6S, 14S, 18R)-{4-Cyclopropanesulfonylaminocarbonyl-18-[(3,4-dihydro-1H-isoquinoline-2-carbonyl)-amino]-2,15-dioxo-3,16-diaza-tricyclo[14.3.0.0^4,6]nonadec-7-en-14-yl}-carbamic acid tert-butyl ester]	> 6.00	> 7.00
CC(C)(C)OC(=O)N[C@H]1CCCCC/C=C\[C@@H]2C[C@@]2(C(=O)NS(=O)(=O)C2CC2)NC(=O)[C@@H]2C[C@@H](OC(=O)N3Cc4ccc(OCCCN5CCOCC5)cc4C3)CN2C1=O [AR00345075, (1S,4R,6S,14S,18R)-5-(3-Morpholin-4-yl-propoxy)-1,3-dihydro-isoindole-2-carboxylic acid 14-tert-butoxycarbonylamino-4-cyclopropanesulfonylaminocarbonyl-2,15-dioxo-3,16-diaza-tricyclo[14.3.0.0^4,6]nonadec-7-en-18-yl ester]	> 6.00	> 7.00
O=C(N[C@H]1CCCCC/C=C\[C@@H]2C[C@@]2(C(=O)NS(=O)(=O)C2CC2)NC(=O)[C@@H]2C[C@@H](OC(=O)N3Cc4ccccc4C4(CCC4)C3)CN2C1=O)O[C@@H]1CCOC1 [AR00314635, (1S,4R,6S,14S,18R)-4,4-Spirocyclobutyl-3,4-dihydro-1H-isoquinoline-2-carboxylic acid 4-cyclopropanesulfonylaminocarbonyl-2,15-dioxo-14-(tetrahydro-furan-3-yloxycarbonylamino)-3,16-diaza-tricyclo[14.3.0.0^4,6]nonadec-7-en-18-yl ester]	> 7.00	> 7.00
O=C(N[C@H]1CCCCC/C=C\[C@@H]2C[C@@]2(C(=O)O)NC(=O)[C@@H]2C[C@@H](OC(=O)N3Cc4ccccc4C3)CN2C1=O)OCCF [AR00320076, (1S,4R,6S,14S,18R)-18-(1,3-Dihydro-isoindole-2-carbonyloxy)-2,15-dioxo-14-(2-fluoro-ethoxycarbonylamino)-3,16-diaza-tricyclo[14.3.0.0^4,6]nonadec-7-ene-4-carboxylic acid]	> 5.00	> 6.00
O=C(N[C@H]1CCCCC/C=C\[C@@H]2C[C@@]2(C(=O)NS(=O)(=O)C2CC2)NC(=O)[C@@H]2C[C@@H](OC(=O)N3Cc4ccccc4C3)CN2C1=O)OCCF [AR00320073, (1S,4R,6S,14S,18R)-1,3-Dihydro-isoindole-2-carboxylic acid 4-cyclopropanesulfonylaminocarbonyl-14-(2-fluoro-ethoxycarbonylamino)-2,15-dioxo-3,16-diaza-tricyclo[14.3.0.0^4,6]nonadec-7-en-18-yl ester]	> 7.00	> 7.00
